What was measured:
[1] = cited from earlier work; for sensitivity threshold (corrected data): J. Soc. Cosmet. Chem., 1978, vol. 29, pp. 185–200
[2] = lower threshold = stronger coolant; data of U.S. Pat. Nos. 4,060,091 etc.; cited from earlier work
[3] = visual and organoleptic test of aqueous solution of the product; assay type: in vivo; conditions: 25 ppm aqueous solution
From the text: (§1) Further, the aqueous solutions of products for organoleptic tests were obtained by dissolving appropriate amounts of the products in dipropylene glycol DPG and adding the solution in DPG to an appropriate amount of water.

[4] = comparison of cooling strength to WS-3 in oral application; assay type: in vivo; conditions: for cooling strength relative to WS-3 (times stronger): aqueous solutions, vs 10 ppm WS-3
Description: as §1
A comparison basis aqueous solution of WS-3 (compound 5) was prepared containing 10 ppm concentration of WS-3.
Aqueous solutions were prepared containing various concentrations of the purified compound 10: 2 ppm, 3 ppm, 4 ppm, 5 ppm, and higher. These solutions were tested in oral application in comparison to the basis solution of 10 ppm of WS-3.
Aqueous solutions were prepared containing various concentrations of the purified compound 10: 2 ppm, 3 ppm, 3.5 ppm, 4 ppm, 5 ppm, and higher. These solutions were tested in oral application in comparison to the basis solution of 10 ppm of WS-3.

[5] = volatility; assay type: physicochemical; conditions: compared with menthol
[6] = sensitivity threshold (cooling strength) of N-monosubstituted p-menthane-3-carboxamides, prior-art patents; assay type: in vivo; conditions: from patent thresholds 0.2 vs 0.3 μg
From the text: With specific reference to structure 6, substituent “X” is commonly selected from the lower linear or branched alkyl substituents, functionally substituted alkyl substituents, or aryl substituents. To that end, U.S. Pat. Nos. 4,060,091; 4,136,163; 4,150,052; 4,178,459; 4,193,936; and 4,226,988, the entire disclosures of which are hereby incorporated by reference for all purposes, give a comparison of cooling strengths of certain N-monosubstituted p-menthane-3-carboxamides numerically expressed as sensitivity thresholds in μg, wherein a lower threshold value correlates to a stronger coolant effect. Of the compared compounds, the only commercially used N-monosubstituted p-menthane-3-carboxamide compound is the WS-3 coolant, having a sensitivity threshold of 0.3 μg.

Row | SMILES | sensitivity threshold [2] | tingling/cooling sensation [3] | other results
1 | CCNC(=O)C1C[C@H](C)CCC1C(C)C (stereo in doubt) [WS-3, N-ethyl-p-menthane-3-carboxamide, reference compound] | 0.3 µg |  | sensitivity threshold (corrected data) [1]: 0.2 µg
2 | CCOC(=O)CNC(=O)C1CC(C)CCC1C(C)C (stereo not drawn) [Comparative Synthetic and Organoleptic Example 1] [ethyl ester of N-[[5-methyl-2-(1-methylethyl)cyclohexyl]carbonyl]glycine, reference compound] |  | noticeable tingling/cooling sensation | 
3 | CCOC(=O)CNC(=O)C1CC(C)CCC1C(C)C (stereo not drawn) [Comparative Synthetic and Organoleptic Example 2 after the a] [ethyl ester of N-[[5-methyl-2-(1-methylethyl)cyclohexyl]carbonyl]glycine, reference compound] |  | strong tingling/cooling sensation | 
4 | CCOC(=O)CNC(=O)C1CC(C)CCC1C(C)C (stereo not drawn) [Comparative Synthetic and Organoleptic Example 2] [ethyl ester of N-[[5-methyl-2-(1-methylethyl)cyclohexyl]carbonyl]glycine, reference compound] |  | strong tingling/cooling sensation | 
5 | CCOC(=O)CNC(=O)C1CC(C)CCC1C(C)C (stereo not drawn) [Inventive Example 1, ethyl ester of N-[[5-methyl-2-(1-methylethyl)cyclohexyl]carbonyl]glycine] |  | very strong tingling/cooling sensation | cooling effect compared to basis solution of 10 ppm WS-3 ([4]; 4 ppm aqueous solution): approximately equal cooling effect; cooling effect compared to basis solution of 10 ppm WS-3 ([4]; 5 ppm aqueous solution): stronger and longer lasting cooling effect; cooling strength relative to WS-3 (times stronger) [4]: approximately 2.5 times
6 | CCOC(=O)CNC(=O)C1CC(C)CCC1C(C)C (stereo not drawn) [Inventive Example 2, ethyl ester of N-[[5-methyl-2-(1-methylethyl)cyclohexyl]carbonyl]glycine] |  | very strong tingling/cooling sensation | 
7 | CCOC(=O)CNC(=O)C1CC(C)CCC1C(C)C (stereo not drawn) [Inventive Example 3 (A), ethyl ester of N-[[5-methyl-2-(1-methylethyl)cyclohexyl]carbonyl]glycine] |  | very strong tingling/cooling sensation | 
8 | CCOC(=O)CNC(=O)C1CC(C)CCC1C(C)C (stereo not drawn) [Inventive Example 3, ethyl ester of N-[[5-methyl-2-(1-methylethyl)cyclohexyl]carbonyl]glycine] |  |  | cooling effect compared to basis solution of 10 ppm WS-3 ([4]; 3.5 ppm aqueous solution): approximately equal cooling effect; cooling effect compared to basis solution of 10 ppm WS-3 ([4]; 4 ppm aqueous solution): stronger and longer lasting cooling effect; cooling strength relative to WS-3 (times stronger) [4]: approximately 3 times; tingling/cooling sensation ([3]; listed as Inventive Example 3 (B)): extremely strong and pleasant tingling/cooling sensation
9 | CCOC(=O)CNC(=O)C1CC(C)CCC1C(C)C (stereo not drawn) [Inventive Example 4, ethyl ester of N-[[5-methyl-2-(1-methylethyl)cyclohexyl]carbonyl]glycine] |  | very strong tingling/cooling sensation | 
10 | CCOC(=O)CNC(=O)C1CC(C)CCC1C(C)C (stereo not drawn) [Inventive Example 5, ethyl ester of N-[[5-methyl-2-(1-methylethyl)cyclohexyl]carbonyl]glycine] |  | very strong tingling/cooling sensation | 
11 | Cc1ccc(NC(=O)C2CC(C)CCC2C(C)C)cc1C (stereo not drawn) [compound 7] | 0.1 µg |  | 
12 | Cc1ccc(NC(=O)C2CC(C)CCC2C(C)C)cc1O (stereo not drawn) [compound 8] | 0.1 µg |  | 
13 | CCOC(=O)CNC(=O)C1CC(C)CCC1C(C)C (stereo not drawn) [compound 10, ethyl ester of N-[[5-methyl-2-(1-methylethyl)cyclohexyl]carbonyl]glycine] | 0.2 µg |  | volatility [5]: much lower volatility than menthol; cooling strength relative to WS-3 (times stronger) [6]: 1.5 times; sensitivity threshold (corrected data) [1]: 0.13 µg; cooling strength relative to compound 5 (times stronger) ([1]; from corrected thresholds 0.13 vs 0.2 μg): approximately 1.5 times

Source: US7189760B2, “Physiological cooling compositions containing highly purified ethyl ester of N-[[5-methyl-2-(1-methylethyl) cyclohexyl] carbonyl]glycine” (Millennium Specialty Chemicals, priority 2004, dated 2007)
